Test results: ChEMBL document CHEMBL1201862, “PubChem BioAssay data set” (2004)
Calls of active or inactive are those of the source.

Legend:
[1] = molecular target: Nuclear receptor subfamily 5 group A member 2 (Homo sapiens, UniProt O00482); format: functional, cell-based;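 note: HEK293T cells transfected with LRH-1 and a StAR promoter luciferase reporter; potency for inhibitors that lower LRH-1 driven reporter light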
[2] = nonselective StAR promoter luciferase inhibitors – cell-based, luminescence, luciferase reporter, counter-screen for LRH-1 inverse agonist project, dose response (AID 651969); format: functional
Steroidogenic factor 1 = Steroidogenic factor 1 (Homo sapiens, UniProt Q13285); test: Counterscreen for inverse agonists of the liver receptor homolog-1 (LRH-1; NR5A2): Luminescence-based cell-based high throughput dose response assay to identify inverse agonists of the Steroidogenic Factor 1 Nuclear Receptor (SF1; NR5A1).; format: functional
Cytochrome P450 3A4 = Cytochrome P450 3A4 (Homo sapiens, UniProt P08684);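 note: CYP3A4 tested as one member of a cytochrome P450 panel screen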
Cytochrome P450 2C9 = Cytochrome P450 2C9 (Homo sapiens, UniProt P11712)
Cytochrome P450 2C19 = Cytochrome P450 2C19 (Homo sapiens, UniProt P33261); test: Cytochrome panel assay with activity outcomes. Panel member name: p450-cyp2c19 Compounds with AC50 equal or less than 10 uM are considered active; format: functional; details: read-out: AC50
[3] = molecular target: T1, Sentrin-specific protease 7 (Homo sapiens, UniProt Q9BQF6); format: functional;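 note: Luminescence-based dose-response confirmation of ultra-high-throughput screening hits, measuring inhibition of SENP7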
T1 sequence (Q9BQF6 whole entry): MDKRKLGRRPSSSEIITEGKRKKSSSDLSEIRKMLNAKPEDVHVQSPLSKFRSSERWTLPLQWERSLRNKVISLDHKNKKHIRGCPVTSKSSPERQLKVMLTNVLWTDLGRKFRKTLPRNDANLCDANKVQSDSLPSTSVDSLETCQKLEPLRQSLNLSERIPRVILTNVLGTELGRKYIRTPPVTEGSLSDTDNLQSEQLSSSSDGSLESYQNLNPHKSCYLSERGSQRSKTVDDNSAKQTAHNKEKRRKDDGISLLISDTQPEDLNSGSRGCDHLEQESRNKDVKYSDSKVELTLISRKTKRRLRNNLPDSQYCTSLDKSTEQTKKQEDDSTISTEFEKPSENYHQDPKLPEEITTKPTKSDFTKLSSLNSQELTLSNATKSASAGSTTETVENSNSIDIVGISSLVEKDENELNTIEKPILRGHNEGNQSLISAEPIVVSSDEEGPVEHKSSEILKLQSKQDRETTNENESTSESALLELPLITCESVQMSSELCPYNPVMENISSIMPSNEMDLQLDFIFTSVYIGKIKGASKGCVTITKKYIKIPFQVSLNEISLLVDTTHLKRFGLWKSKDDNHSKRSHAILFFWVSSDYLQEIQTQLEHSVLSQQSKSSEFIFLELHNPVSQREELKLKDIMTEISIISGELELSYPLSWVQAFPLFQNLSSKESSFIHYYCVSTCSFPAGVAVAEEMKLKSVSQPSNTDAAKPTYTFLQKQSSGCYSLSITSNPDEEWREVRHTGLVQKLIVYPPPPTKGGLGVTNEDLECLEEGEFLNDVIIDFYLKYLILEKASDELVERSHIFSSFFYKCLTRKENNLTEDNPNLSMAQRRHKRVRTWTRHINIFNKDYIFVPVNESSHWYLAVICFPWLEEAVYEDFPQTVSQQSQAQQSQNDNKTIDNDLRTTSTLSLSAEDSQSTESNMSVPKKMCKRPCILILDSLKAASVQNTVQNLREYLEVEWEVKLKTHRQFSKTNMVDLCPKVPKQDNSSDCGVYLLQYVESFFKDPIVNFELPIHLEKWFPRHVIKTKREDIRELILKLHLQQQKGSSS

[4] = molecular target: T2, Sentrin-specific protease 6 (Homo sapiens, UniProt Q9GZR1); format: functional;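 note: Luminescence-based dose-response confirmatory assay of SENP6 inhibition, following up an ultra-high-throughput screen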
T2 sequence (Q9GZR1 whole entry): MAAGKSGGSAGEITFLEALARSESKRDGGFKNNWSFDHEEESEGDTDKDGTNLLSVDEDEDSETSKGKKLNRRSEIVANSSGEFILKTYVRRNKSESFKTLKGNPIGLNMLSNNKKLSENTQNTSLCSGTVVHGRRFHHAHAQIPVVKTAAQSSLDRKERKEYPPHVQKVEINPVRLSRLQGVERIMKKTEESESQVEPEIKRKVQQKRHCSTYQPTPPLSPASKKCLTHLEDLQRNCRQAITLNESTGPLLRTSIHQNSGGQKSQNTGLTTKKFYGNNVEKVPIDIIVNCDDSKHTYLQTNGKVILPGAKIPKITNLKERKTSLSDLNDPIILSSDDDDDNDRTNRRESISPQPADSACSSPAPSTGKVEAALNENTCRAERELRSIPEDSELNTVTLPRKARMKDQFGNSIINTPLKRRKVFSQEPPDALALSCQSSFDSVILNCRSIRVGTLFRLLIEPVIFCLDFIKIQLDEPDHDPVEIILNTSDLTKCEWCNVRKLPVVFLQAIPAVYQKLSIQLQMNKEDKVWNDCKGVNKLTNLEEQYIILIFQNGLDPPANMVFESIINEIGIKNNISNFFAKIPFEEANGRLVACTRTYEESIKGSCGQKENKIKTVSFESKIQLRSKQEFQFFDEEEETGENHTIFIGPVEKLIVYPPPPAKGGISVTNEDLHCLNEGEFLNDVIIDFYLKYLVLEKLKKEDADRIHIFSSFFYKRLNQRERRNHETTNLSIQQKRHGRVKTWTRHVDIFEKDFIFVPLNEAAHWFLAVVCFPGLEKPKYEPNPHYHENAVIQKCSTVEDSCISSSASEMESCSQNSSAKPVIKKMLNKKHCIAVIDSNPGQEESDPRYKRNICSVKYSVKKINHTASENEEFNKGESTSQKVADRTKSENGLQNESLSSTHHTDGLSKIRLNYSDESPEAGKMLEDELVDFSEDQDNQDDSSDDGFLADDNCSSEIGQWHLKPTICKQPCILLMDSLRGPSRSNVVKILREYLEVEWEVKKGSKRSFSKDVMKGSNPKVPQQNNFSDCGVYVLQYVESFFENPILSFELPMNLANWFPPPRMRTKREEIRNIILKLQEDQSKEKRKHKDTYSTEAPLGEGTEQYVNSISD

Caspase-3 = molecular target: T3, Caspase-3 (Homo sapiens, UniProt P42574); format: functional;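 note: Dose-response selectivity test against caspase-3 for candidate inhibitors of sentrin-specific proteases (SENPs)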
T3 sequence (P42574 whole entry): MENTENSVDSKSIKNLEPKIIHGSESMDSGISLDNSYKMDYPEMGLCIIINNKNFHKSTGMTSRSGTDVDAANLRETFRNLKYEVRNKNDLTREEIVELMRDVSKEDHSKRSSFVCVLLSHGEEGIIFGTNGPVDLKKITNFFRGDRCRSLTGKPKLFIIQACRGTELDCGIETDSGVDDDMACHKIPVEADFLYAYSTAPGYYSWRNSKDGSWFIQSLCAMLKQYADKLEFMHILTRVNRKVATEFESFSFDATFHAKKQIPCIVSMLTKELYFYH

[5] = molecular target: T4, Sentrin-specific protease 8 (Homo sapiens, UniProt Q96LD8); format: functional;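 note: luminescence read-out of SENP8 inhibition, dose-response confirmation following an ultra-high-throughput screen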
T4 sequence (Q96LD8 whole entry): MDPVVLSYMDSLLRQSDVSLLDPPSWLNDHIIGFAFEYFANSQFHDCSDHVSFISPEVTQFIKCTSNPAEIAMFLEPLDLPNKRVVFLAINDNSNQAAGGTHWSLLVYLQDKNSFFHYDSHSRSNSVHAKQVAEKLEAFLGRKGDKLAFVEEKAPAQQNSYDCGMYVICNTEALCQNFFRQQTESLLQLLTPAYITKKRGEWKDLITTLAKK

Cytochrome P450 2D6 = Cytochrome P450 2D6 (Homo sapiens, UniProt P10635);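 note: CYP2D6 member of a cytochrome P450 panel assay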
Cytochrome P450 1A2 = molecular target: T5, Cytochrome P450 1A2 (Homo sapiens, UniProt P05177);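 note: PubChem cytochrome P450 panel assay, CYP1A2 panel member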
T5 sequence (P05177 whole entry): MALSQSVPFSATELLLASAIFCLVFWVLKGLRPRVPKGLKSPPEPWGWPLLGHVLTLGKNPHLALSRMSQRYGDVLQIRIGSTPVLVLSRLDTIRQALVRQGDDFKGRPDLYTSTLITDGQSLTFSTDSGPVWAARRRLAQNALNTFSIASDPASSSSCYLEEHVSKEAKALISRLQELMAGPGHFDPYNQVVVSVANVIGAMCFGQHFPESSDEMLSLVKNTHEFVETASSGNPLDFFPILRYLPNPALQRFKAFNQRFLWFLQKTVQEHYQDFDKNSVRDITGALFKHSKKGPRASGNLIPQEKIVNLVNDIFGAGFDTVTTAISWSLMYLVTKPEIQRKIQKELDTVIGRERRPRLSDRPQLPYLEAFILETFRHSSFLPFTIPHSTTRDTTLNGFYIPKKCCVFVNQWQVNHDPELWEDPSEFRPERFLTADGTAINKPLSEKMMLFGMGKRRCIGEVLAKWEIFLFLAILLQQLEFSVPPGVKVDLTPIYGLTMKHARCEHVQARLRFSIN

[6] = molecular target: T6, Polyadenylate-binding protein 1 (Homo sapiens, UniProt P11940); test: MLLE binding blockers, Cy5 peptide tracer – biochemical, fluorescence polarization, Cy5-PAM2 peptide, secondary, miRNA deadenylation inhibitor project, dose response (AID 602260); format: functional; details: read-out: IC50_Mean
[7] = molecular target: T6, Polyadenylate-binding protein 1; test: MLLE domain peptide-binding blockers, IC50 – biochemical, fluorescence polarization, FITC-PAM2 peptide, dose response (AID 602259); format: functional; details: read-out: IC50_Mean
[8] = viability loss in HeLa cells – cytotoxicity control for MgcRacGAP inhibitor project, dose response (AID 624300); format: functional

Sequence of Steroidogenic factor 1 (Q13285 whole entry): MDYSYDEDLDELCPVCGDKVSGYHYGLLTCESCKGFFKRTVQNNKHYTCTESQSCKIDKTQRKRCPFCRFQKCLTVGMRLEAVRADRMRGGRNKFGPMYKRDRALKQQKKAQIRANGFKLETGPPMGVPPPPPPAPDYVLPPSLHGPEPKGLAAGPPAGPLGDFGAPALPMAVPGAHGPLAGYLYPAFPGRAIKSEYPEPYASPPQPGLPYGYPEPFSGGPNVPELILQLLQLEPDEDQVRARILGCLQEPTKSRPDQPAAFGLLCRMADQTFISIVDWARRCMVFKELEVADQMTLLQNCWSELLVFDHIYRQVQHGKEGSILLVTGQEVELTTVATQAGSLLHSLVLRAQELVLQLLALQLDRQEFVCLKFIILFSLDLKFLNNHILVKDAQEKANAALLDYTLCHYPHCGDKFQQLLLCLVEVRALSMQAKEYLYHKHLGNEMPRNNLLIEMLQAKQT
Sequence of Nuclear receptor subfamily 5 group A member 2 (O00482 whole entry): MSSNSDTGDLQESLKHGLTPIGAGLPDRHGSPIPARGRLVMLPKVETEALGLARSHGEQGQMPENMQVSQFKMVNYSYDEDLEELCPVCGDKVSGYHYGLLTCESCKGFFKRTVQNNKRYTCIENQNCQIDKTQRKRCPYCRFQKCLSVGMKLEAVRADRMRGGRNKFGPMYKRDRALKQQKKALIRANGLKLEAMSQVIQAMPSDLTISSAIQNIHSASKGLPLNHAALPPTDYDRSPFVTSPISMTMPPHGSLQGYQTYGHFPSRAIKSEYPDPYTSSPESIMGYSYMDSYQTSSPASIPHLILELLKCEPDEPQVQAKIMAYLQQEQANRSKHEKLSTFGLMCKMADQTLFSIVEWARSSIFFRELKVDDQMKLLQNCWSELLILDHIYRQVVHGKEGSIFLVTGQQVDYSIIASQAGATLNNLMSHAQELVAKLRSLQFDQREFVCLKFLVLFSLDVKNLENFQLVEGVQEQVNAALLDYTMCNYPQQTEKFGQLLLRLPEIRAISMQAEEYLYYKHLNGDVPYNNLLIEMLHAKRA
Sequence of Cytochrome P450 2C19 (P33261 whole entry): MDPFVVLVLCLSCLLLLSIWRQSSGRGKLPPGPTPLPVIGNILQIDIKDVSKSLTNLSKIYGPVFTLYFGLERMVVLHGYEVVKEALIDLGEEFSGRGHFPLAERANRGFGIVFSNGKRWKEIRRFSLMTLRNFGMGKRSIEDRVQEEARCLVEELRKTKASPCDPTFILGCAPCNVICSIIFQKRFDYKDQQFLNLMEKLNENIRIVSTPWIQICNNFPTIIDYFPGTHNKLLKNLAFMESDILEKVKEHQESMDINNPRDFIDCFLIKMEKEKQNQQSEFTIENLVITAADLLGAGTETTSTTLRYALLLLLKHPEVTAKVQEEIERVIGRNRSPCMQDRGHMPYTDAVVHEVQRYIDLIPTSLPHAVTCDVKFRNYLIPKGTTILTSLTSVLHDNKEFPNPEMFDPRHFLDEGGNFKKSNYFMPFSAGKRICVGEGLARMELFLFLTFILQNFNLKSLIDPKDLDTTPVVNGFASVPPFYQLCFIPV
Sequence of Cytochrome P450 3A4 (P08684 whole entry): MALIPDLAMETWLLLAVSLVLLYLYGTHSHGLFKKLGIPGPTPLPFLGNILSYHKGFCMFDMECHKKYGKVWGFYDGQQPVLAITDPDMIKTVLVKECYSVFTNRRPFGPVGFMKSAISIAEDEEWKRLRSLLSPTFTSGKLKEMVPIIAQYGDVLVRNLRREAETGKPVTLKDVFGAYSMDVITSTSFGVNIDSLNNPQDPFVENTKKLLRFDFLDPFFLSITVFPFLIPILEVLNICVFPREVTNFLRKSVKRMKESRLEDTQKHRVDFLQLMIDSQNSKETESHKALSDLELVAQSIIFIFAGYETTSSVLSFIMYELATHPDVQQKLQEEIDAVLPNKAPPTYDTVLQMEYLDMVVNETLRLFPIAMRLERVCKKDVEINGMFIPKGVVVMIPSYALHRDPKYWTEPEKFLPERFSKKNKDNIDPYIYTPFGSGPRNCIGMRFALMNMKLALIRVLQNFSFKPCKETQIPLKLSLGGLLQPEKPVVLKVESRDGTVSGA
Sequence of Cytochrome P450 2D6 (P10635 whole entry): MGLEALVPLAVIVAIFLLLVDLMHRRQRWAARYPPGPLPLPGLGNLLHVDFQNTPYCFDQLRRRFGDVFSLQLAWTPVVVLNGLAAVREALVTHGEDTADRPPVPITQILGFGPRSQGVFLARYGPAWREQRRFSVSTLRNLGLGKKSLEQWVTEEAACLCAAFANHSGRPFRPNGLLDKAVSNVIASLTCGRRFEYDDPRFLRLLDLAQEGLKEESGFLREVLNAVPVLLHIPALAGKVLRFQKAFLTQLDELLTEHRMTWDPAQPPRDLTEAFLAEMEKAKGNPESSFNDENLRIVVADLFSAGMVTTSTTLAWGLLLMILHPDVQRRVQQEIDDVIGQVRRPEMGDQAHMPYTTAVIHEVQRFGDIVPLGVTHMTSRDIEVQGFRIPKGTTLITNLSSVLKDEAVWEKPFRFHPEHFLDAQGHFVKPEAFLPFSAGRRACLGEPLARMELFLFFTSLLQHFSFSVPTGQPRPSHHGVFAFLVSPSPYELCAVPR
T6 sequence (P11940 whole entry, the tested form may be a part): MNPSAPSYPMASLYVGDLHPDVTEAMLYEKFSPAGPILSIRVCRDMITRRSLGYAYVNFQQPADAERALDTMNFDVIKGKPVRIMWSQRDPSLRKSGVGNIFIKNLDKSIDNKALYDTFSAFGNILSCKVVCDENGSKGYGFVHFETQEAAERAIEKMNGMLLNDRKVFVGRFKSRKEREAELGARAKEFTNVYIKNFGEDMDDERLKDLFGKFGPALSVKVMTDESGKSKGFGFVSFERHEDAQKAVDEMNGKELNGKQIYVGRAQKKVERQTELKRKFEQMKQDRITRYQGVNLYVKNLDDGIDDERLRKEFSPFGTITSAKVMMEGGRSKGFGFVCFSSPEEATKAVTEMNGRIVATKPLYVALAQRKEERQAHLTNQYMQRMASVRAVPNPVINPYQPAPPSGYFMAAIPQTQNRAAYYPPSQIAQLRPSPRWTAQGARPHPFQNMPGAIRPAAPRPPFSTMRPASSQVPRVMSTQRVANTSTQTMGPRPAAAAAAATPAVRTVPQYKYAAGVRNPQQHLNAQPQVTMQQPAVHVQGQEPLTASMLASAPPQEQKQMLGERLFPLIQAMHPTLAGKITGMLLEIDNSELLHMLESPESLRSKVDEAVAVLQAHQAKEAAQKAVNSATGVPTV
Sequence of Cytochrome P450 2C9 (P11712 whole entry): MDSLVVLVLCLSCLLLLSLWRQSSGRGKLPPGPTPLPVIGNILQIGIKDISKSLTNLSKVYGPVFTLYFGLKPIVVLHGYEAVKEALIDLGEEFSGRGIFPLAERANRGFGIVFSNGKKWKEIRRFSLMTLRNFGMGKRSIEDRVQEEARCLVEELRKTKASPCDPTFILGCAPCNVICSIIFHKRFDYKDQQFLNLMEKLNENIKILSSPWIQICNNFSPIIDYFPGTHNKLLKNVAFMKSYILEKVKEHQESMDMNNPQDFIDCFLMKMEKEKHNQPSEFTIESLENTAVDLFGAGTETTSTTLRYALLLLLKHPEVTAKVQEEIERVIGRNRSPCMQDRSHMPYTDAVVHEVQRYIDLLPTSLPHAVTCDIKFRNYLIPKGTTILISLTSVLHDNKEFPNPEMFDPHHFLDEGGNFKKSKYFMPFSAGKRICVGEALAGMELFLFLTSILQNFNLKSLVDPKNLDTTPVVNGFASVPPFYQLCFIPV

Row | SMILES | AC50 (Cytochrome P450 3A4) | IC50 [3] | IC50 [4] | IC50 (Caspase-3) | IC50 [1] | IC50 [2] | IC50 (Steroidogenic factor 1) | IC50 [5] | other results
1 | N#Cc1cc([N+](=O)[O-])ccc1NC(=O)COC(=O)C1CCC(=O)N1 (centres undefined) |  |  |  |  | 6.37 µM (active) | 35.9 µM (inactive) | 4.87 µM (active) |  | 
2 | COC(=O)c1ccc(NC(=O)CSc2nncn2-c2cccnc2)cc1 |  |  |  |  | 35.9 µM (inactive) | 35.9 µM (inactive) | 14 µM (inactive) |  | 
3 | CC(O)(c1cccc(F)c1)c1nc(-c2ccc(S(C)(=O)=O)cc2)cs1 (centres undefined) |  |  |  |  | 10.3 µM (inactive) | 35.9 µM (inactive) | 3.64 µM (active) |  | 
4 | COc1ccc(S(=O)(=O)N2CCN(CC(=O)Nc3ccc(C)c(F)c3)CC2)cc1 |  |  |  |  | 6.16 µM (active) | 35.9 µM (inactive) | 3.05 µM (active) |  | 
5 | Oc1ccc2[nH]cc(CCCCN3CC=C(c4ccccc4)CC3)c2c1 [ROXINDOLE] | inconclusive |  |  |  |  |  |  |  | AC50 (Cytochrome P450 2C9): 12.6 µM (inconclusive); AC50 (Cytochrome P450 2C19): 20 µM (inconclusive)
6 | CCOc1ccc(NC(=O)CSc2nnc(C(C)C)n2CC)cc1 |  |  |  |  | 35.9 µM (inactive) | 35.9 µM (inactive) | 6.03 µM (active) |  | 
7 | COCCn1c(C)cc(/C=C(\C#N)C(=O)OCC(=O)Nc2ccc(S(N)(=O)=O)cc2)c1C |  |  |  |  | 35.9 µM (inactive) | 35.9 µM (inactive) | 3.99 µM (active) |  | 
8 | O=C(CCCN1C(=O)/C(=C/c2ccccc2Cl)SC1=S)NCCCN1CCOCC1 |  | 14.8 µM (active) | 36.7 µM (active) | 34.2 µM (active) |  |  |  | 43.6 µM (active) | IC50 [6]: > 66 µM (inactive); IC50 [7]: > 66 µM (inactive)
9 | COc1ccc(C2(C)NC(=O)N(CC(=O)Nc3ccc(C)cc3Br)C2=O)cc1OC (centres undefined) |  |  |  |  | 35.9 µM (inactive) | 35.9 µM (inactive) | 11.7 µM (inactive) |  | 
10 | CCCN1C(=O)/C(=C/c2cc(C)n(C)c2C)S/C1=N/c1ccc(OCC)cc1 |  |  |  |  |  |  |  |  | CC50 [8]: 100 µM (active)

Further lines, with some results ahead:

Row | AC50 (Cytochrome P450 3A4) | IC50 [3] | IC50 [4] | IC50 (Caspase-3) | SMILES | IC50 [1] | IC50 [2] | IC50 (Steroidogenic factor 1) | IC50 [5] | other results
11 | inconclusive |  |  |  | Cn1c(=O)c(-c2ccccc2)nc2cnc(N3CCOCC3)nc21 |  |  |  |  | AC50 (Cytochrome P450 2C9): 39.8 µM (inconclusive); AC50 (Cytochrome P450 2C19): 39.8 µM (inconclusive)
12 |  | 8.63 µM (active) | 25 µM (active) | 32 µM (active) | c1ccc(Cn2nc(-c3ccccc3)nc2-c2ccccc2)cc1 |  |  |  | 30.4 µM (active) | 
13 |  | 7.37 µM (active) | 20.9 µM (active) | 40.1 µM (active) | COc1cccc(C(=O)Oc2ccc3ccc(O)cc3c2)c1 |  |  |  | 17 µM (active) | 
14 | inconclusive |  |  |  | COC(=O)N1CCC2(CC1)CN(c1ccccn1)C2 |  |  |  |  | AC50 (Cytochrome P450 2D6): 10 µM (inconclusive)
15 | inconclusive |  |  |  | O=C(c1cccc(F)c1)N1CCC2(CC1)CN(c1cccc(-c3ccccc3)c1)C2 |  |  |  |  | AC50 (Cytochrome P450 1A2): 12.6 µM (inconclusive)
16 |  | 6.34 µM (active) | 27.4 µM (active) | 22 µM (active) | COc1ccc(C(=O)CNc2ccccc2Br)cc1 |  |  |  | 82.8 µM (active) | 
17 |  | 7.21 µM (active) | 7.19 µM (active) | 24.6 µM (active) | O=C(Nc1ccc(Br)cc1)Nc1ccccc1Cl |  |  |  | 26.8 µM (active) | 
18 | inconclusive |  |  |  | CCOC(=O)C1=C(C)N=C2SC(C(=O)OC)=CC(=O)N2C1c1ccc(F)cc1 (centres undefined) |  |  |  |  | AC50 (Cytochrome P450 1A2): 31.6 µM (inconclusive); AC50 (Cytochrome P450 2D6): 12.6 µM (inconclusive)
19 | inconclusive |  |  |  | O=C(c1ccco1)N1CCC2(CC1)CN(c1ccc(-c3ccccc3)cc1)C2 |  |  |  |  | AC50 (Cytochrome P450 2C19): 0.158 µM (inconclusive); AC50 (Cytochrome P450 1A2): 1 µM (inconclusive)
20 |  | 11.8 µM (active) | 46.9 µM (active) | > 100 µM (inactive) | O=C(Nc1cc(Cl)cc(Cl)c1)c1cccc(OC(F)F)c1 |  |  |  | 53.9 µM (active) | 
